Earlier results, collected in US6638906B1, “Amphiphilic polymers and polypeptide conjugates comprising same” (Nobex Corporation, priority 1999, dated 2003).

B1: diazepan binding inhibitor: peptide secreted into the intestines found to stimulate CCK release (protein, UniProt P07108 2-87, looked up)
Acyl-CoA-binding protein: SQAEFEKAAEEVRHLKTKPSDEEMLFIYGHYKQATVGDINTERPGMLDFTGKAKWDAWNELKGTSKEDAMKAYINKVEELKKKYGI
B2: monitor peptide: peptide secreted into the intestines that controls CCK release by positive feedback regulation (protein, UniProt P09655 19-79, looked up)
Serine protease inhibitor …: GNPPAEVNGKTPNCPKQIMGCPRIYDPVCGTNGITYPSECSLCFENRKFGTSIHIQRRGTC

What was measured:
native CCK cells = settings: versus vehicle/basal secretion
food intake = settings: infused into the duodenum of rats with trypsin inhibitors
[1] = tested on: pancreatic protein output; settings: infused into the duodenum of rats
CCK release = settings: relative to LCRF

Molecule	increase in CCK secretion (STC-1 cells) [%]	increase in CCK secretion (native CCK cells) [%]	effect on food intake (food intake)	dose-response of pancreatic protein output [1]	potency for stimulating CCK release, fold less than LCRF (CCK release)
luminal cholecystokinin releasing factor [Native LCRF]	~300	~300	causes a reduction of food intake	biphasic dose-response of curve of pancreatic protein output is observed, with higher doses of LCRF leading to decreased pancreatic protein output	
B1					100-1,000 fold
B2					6 fold
